Experimental findings from ChEMBL document CHEMBL1149886, “Natural and non-natural prenylated chalcones: synthesis, cytotoxicity and anti-oxidative activity” (Bioorg Med Chem, 2008) are described below.

Molecules are shown by their SMILES.

Assay [1] can be described thus: Antioxidant activity assessed as trolox equivalent at 0.4 to 1 uM by ORAC-fluorescein assay. The class given is functional.
Assay [2] deals with HeLa. The experiment in a line: Cytotoxicity against human HeLa cells by MTT assay. The class given is functional, cell-based.
The nature of assay [3]: Antioxidant activity assessed as trolox equivalent at 0.1 to 1 uM by ORAC-fluorescein assay. It counts as functional.
Assay [4] in a line: Antioxidant activity assessed as trolox equivalent at 0.25 to 1.5 uM by ORAC-fluorescein assay. The class given is functional.
A short description of assay [5]: Antioxidant activity assessed as trolox equivalent at 0.1 to 1.5 uM by ORAC-fluorescein assay. The class given is functional.
Assay [6] is described as follows: Antioxidant activity assessed as trolox equivalent at 0.5 to 2.0 uM by ORAC-fluorescein assay. The class given is functional.
Assay [7] in a line: Antioxidant activity assessed as trolox equivalent at 0.2 to 0.6 uM by ORAC-fluorescein assay. It counts as functional.
A short description of assay [8]: Antioxidant activity assessed as trolox equivalent at 0.3 to 1 uM by ORAC-fluorescein assay. It counts as functional.

As for `O=C(O)/C=C/c1ccc(O)cc1`, in assay [1], the Activity is 4.51.
For `COc1cc(O)cc(O)c1C(=O)/C=C/c1ccc(O)cc1` [HELICHRYSETIN], the midpoint of inhibition in assay [2], the IC50, lay at 5.2 µM. For the same compound, the Activity in assay [3] worked out at 4.4.
In the case of `COc1cc(O)c(CC=C(C)C)c(O)c1C(=O)/C=C/c1ccc(O)c(O)c1`, in assay [2], the midpoint of inhibition, the IC50, lay at 2.5 µM. The Activity in assay [3] was 3.1.
Regarding `COc1cc(O)c(CC=C(C)C)c(O)c1C(=O)/C=C/c1ccccc1O`, the IC50 (in general, the concentration that gives 50% inhibition) in assay [2] worked out at 5.9 µM. Further, the Activity in assay [4] was determined as 2.3.
`COc1cc(O)c(C(=O)/C=C/c2ccc(O)cc2)c(OC)c1CC=C(C)C` returned an IC50 in assay [2] of 25.6 µM. Moreover, the Activity in assay [4] worked out at 1.5.
The corresponding values for `COc1cc(O)c(C(=O)/C=C/c2ccc(O)cc2)c(O)c1CC=C(C)C` [XANTHOGALENOL] are 28.3 µM and 1.8.
The corresponding values for `CC(C)=CCc1c(O)cc(O)c(C(=O)/C=C/c2ccc(O)cc2)c1O` [DEMETHYLXANTHOHUMOL] are 16.5 µM and 3.8.
Turning to `COc1cc(OC)c(C(=O)/C=C/c2ccc(O)cc2)c(O)c1CC=C(C)C`, the Activity in assay [5] turned out to be 3.8. In addition, the IC50 in assay [2] stood at 11.8 µM.
Compound `COc1cc(O)c(CC=C(C)C)c(O)c1C(=O)/C=C/c1cc(O)cc(O)c1` showed an IC50 in assay [2] of 3.2 µM. Moreover, in assay [3], the Activity turned out to be 2.9.
`COc1ccc(/C=C/C(=O)c2c(OC)cc(O)c(CC=C(C)C)c2O)cc1OC`: in assay [6], the Activity is 0.9. For the same compound, the IC50 in assay [2] was 17.1 µM.
Regarding `O=c1c(O)c(-c2ccc(O)c(O)c2)oc2cc(O)cc(O)c12`, in assay [7], the Activity was 10.5.
In assay [2], `COc1cc(O)c(CC=C(C)C)c(O)c1C(=O)/C=C/c1cccc(O)c1` yielded an IC50 of 4.8 µM. The Activity in assay [4] was determined as 2.7.
The compound `COc1cc(O)c(CC=C(C)C)c(O)c1C(=O)/C=C/c1cc(O)c(O)c(O)c1` had an IC50 in assay [2] of 30.3 µM. Further, the Activity in assay [3] stood at 1.1.
As to `COc1cc(/C=C/C(=O)O)ccc1O`, in assay [8], the Activity came to 4.47.
With `COc1cc(O)cc(O)c1C(=O)/C=C/c1ccc(O)c(O)c1`, inhibition in assay [2] was half-maximal at 14.8 µM (IC50). The Activity in assay [4] was determined as 3.
Consider `COc1cc(O)c(CC=C(C)C)c(O)c1C(=O)/C=C/c1ccc(O)cc1` [XANTHOHUMOL], for which the IC50 in assay [2] was found to be 9.4 µM. The Activity in assay [4] turned out to be 2.3.
